Test results taken from patent US20100292216A1, “Methods and Compositions for the Treatment of Psychiatric Conditions” (ADAMAS PHARMACEUTICALS, INC., priority 2004, published 2010).
“Also recorded” adds a separate entry of the source. Read-outs that look alike come from different tables or passages of the source.

Key:
[1] = cited from earlier work; for Human PK T 1/2 / Tmax: parent drug
[2] = humans; cited from earlier work
[3] = test system: depression model (forced swim test (FST)); experiment: Dose ranging study in depression model (forced swim test); assay type: in vivo
Text: An isobolic experiment ensues where the drugs are combined in fractions of their EDXXs to add up to ED100 (i.e., ED50:ED50, ED25:ED75, etc.). The plot of the data is constructed. The experiment points that lie below the straight line between the ED50 points on the graph are indicative of synergy, points on the line are indicative of additive effects, and points above the line are indicative of inhibitory effects. The point of maximum deviation from the isobolic line is the optimal ratio. […] Similar protocols may be applied in a wide variety of validated animal models.

[4] = IR administration; memantine 10 mg bid, duloxetine 60 mg qd; cited from earlier work

SMILES | Human PK T 1/2 ([1]; humans) | Tmax ([1]; humans) | Main Dose Dependent Adverse Event [2] | T½ ([1]; head of release table, Example 3) | ED50 [3] | Dose Dependent Tox [2] | Tmax [4] | Human PK T 1/2 (hrs) for ODV ([1]; humans, ODV) | Tmax (hrs) for ODV ([1]; humans, ODV) | T½ [4]
CC(NC(C)(C)C)C(=O)c1cccc(Cl)c1 (stereo not shown) [WELLBUTRIN/Bupropion, bupropion] | 14 h | 2 h | Anorexia, constipation,; also recorded: seizures (Bold Warning) |  |  |  |  |  |  | 
Fc1ccc([C@@H]2CCNC[C@H]2COc2ccc3c(c2)OCO3)cc1 [PAXIL/Paroxetine, paroxetine] | 21 h | 5 h | Sexual dys | T½ = 21 hrs |  |  |  |  |  | 
CC12CC3CC(C)(C1)CC(N)(C3)C2 [Memantine, 1-amino-3,5-dimethyladamantane] |  |  |  |  | approximately 15 μM | required, hallucination | 3 h |  |  | 
O=C1CC2(CCCC2)CC(=O)N1CCCCN1CCN(c2ncccn2)CC1 [BUSPAR/Buspirone, buspirone] | 7 h | 1 h | Drowsiness, dizziness |  |  |  |  |  |  | 
COc1ccc(C(CN(C)C)C2(O)CCCCC2)cc1 (stereo not shown) [EFFEXOR/Venlafaxine, venlafaxine] | 5 h | 2 h | nausea, constipation,; also recorded: anorexia, vomiting,; also recorded: somnolence, |  |  |  |  | 11 h | 3 h | 
CNCCCN1c2ccccc2CCc2ccccc21 [NORPRAMIN/Desipramine, desipramine] | 22 h | 3 to 6 h | Hypotension, urinary; also recorded: retention, QTC |  |  |  |  |  |  | 
CN(C)CCC[C@@]1(c2ccc(F)cc2)OCc2cc(C#N)ccc21 [LEXAPRO/Escitalopram, escitalopram] |  | 5 h | Sexual dys |  |  |  |  |  |  | 
CNCC[C@H](Oc1cccc2ccccc12)c1cccs1 [CYMBALTA/Duloxetine, duloxetine] | 12 h | 6 h | Dizziness |  |  |  | 6 h |  |  | 12 h
